Measured values: paper PMC7177833, “2-Aminopyridine Analogs Inhibit Both Enzymes of the Glyoxylate Shunt in Pseudomonas aeruginosa” (International Journal of Molecular Sciences, 2020)
pIC50: −log10 of the molar value. Where two headings read alike, the source gives them in different places.

What was measured:
CYP2C8 = molecular target: T1, CYP2C8 (Homo sapiens, UniProt P10632); assay: CYP450 inhibition in HLM, rosiglitazone probe; assay type: in vitro ADME; settings: read-out: IC50 CYP450 2C8
T1 construct: pooled human liver microsomes; tissue BioIVT; host or cells: pooled human liver microsomes
T1 sequence (P10632 1-490): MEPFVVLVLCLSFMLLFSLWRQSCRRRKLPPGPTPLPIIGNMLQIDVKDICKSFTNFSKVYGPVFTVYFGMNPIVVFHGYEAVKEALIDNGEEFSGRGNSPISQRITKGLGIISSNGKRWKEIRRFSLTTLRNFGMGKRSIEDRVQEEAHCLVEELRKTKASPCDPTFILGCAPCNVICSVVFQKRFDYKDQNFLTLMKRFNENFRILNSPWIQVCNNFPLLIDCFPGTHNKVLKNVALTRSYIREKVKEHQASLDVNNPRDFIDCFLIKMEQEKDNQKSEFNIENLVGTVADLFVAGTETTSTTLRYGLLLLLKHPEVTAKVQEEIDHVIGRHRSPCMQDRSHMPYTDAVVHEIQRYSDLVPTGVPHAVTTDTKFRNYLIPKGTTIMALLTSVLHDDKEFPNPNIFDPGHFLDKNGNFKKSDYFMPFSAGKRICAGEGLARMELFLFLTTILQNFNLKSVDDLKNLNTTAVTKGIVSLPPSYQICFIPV
Method: (§1) The CYP450 inhibition was determined by measuring the reaction products of known CYP450 substrates (probes). Probe solutions were prepared by diluting stock solutions with buffer (100 mM Tris-HCl, pH 7.5, and 0.5 mM EDTA) to the final indicated concentrations (Figure 5), and adding 180 µL of pooled human liver microsomes (20 mg/mL) (BioIVT, West Sussex, UK). These probe solutions were dispensed (195 µL) into clear 96-well plates with low evaporation lids (Corning, Turin, Italy) and the plates were prewarmed to 37 °C in a thermomixer (Hamilton, Agrate Brianza, Italy). Next, 5 µL of the test compound or appropriate positive control (Table S4) were added to the wells and the plates were incubated for a further 5 min. Following this, the reactions were started by adding NADPH regenerating solution (50 µL, see previous Section 4.7) to each well. CYP450 mixtures containing phenacetin, rosiglitazone, mephenytoin, atorvastatin, and nifedipine probes were incubated for 10 min at 37 °C, whereas those with midazolam and diclofenac were incubated for 5 min at 37 °C. Aliquots (100 µL) from each reaction mixture were quenched in 200 µL acetonitrile, and the mixtures were sedimented at 3000 ×g for 10 min at 4 °C. The supernatants were diluted in water containing 5 ng/mL Rolipram as an internal standard for LC-MS/MS analysis. All incubations were carried out in triplicate.
(§2) Probe products were analyzed on an API4000 Qtrap mass spectrometer (Applied Biosystems/MDS SCIEX, Monza, Italy) coupled with an Acquity UPLC system (Waters, Milan, Italy) and a CTC-PAL auto-injector (CTC Analytics AG, Zwingen, Switzerland). […] The column temperature was maintained at 60 °C. The injected sample volume was 10 µL, and analytes were eluted at a flow rate of 800 µL/min in a gradient of eluent A (water with 0.1% formic acid) and eluent B (acetonitrile with 0.1% formic acid). […] The analytes were quantified in multiple reaction-monitoring mode. Data were processed, and the percentage control activity was calculated based on a comparison between the ratio of the sample peak area and the peak area.

[1] = molecular target: T2, ICLPa (isocitrate lyase from P. aeruginosa) (Pseudomonas aeruginosa, UniProt Q9I0K4); assay: Inhibition of purified ICLPa enzymatic activity; assay type: biochemical; settings: for inhibition at 75 µM: 75 µM compound, read-out: Enzyme Inhibition (%) at 75 µM ICLPa; for pIC50: purified enzyme, 170 nM ICL
T2 construct: made in house
T2 sequence (Q9I0K4 1-531): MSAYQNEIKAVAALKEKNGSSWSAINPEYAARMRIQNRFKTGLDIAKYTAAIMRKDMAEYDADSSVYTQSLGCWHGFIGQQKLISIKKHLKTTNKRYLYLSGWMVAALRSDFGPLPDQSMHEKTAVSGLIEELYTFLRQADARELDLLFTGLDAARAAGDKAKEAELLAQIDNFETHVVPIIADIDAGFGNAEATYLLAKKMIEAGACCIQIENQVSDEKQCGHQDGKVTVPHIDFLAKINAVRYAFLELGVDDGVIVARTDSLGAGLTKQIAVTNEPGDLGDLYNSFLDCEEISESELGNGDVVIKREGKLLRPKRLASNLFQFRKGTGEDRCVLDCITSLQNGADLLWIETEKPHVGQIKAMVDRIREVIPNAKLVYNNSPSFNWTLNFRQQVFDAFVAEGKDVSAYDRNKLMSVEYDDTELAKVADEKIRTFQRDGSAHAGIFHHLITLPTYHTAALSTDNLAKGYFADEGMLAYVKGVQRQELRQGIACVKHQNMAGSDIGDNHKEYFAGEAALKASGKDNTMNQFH
Method: The enzymatic activity of purified ICLPa and MSPa was assayed essentially as previously described. Compounds were added to the reaction mixtures (minus substrates) and incubated for 5 min at 37 °C. The enzyme concentration in the reaction mixtures was 170 nM for ICL and 25 nM for MS (based on the concentration of the monomer in each case). […] The reactions were initiated by the addition of pH-adjusted substrates, and the initial rates were recorded as A324 nm (for ICLPa) and A412 nm (for MSPa) using a Biospectrometer (Eppendorf, Stevenage, UK). Substrate turnover was calculated from the molar extinction coefficient of the assay products: Glyoxylate-phenylhydrazone (16,800/M/cm) for ICLPa and 2-nitro-5-thiobenzoic acid (14,150/M/cm) for MSPa.
All data fitting was performed with GraphPad Prism version 7.04 (GraphPad Software, Inc., La Jolla, CA, USA). The solid lines are the result of fitting the data to the equations denoted in relevant experimental sections. IC50 values were determined by a nonlinear fit using the equation for sigmoidal dose-response with variable slope. In all graphs, unless otherwise stated, the data points are the mean of experimental triplicates, and all error bars correspond to ± standard deviation.

CYP2D6 = molecular target: T3, CYP2D6 (Homo sapiens, UniProt P10635); assay: CYP450 inhibition in HLM, bufuralol probe; assay type: in vitro ADME; settings: read-out: IC50 CYP450 2D6
T3 construct: pooled human liver microsomes; tissue BioIVT; host or cells: pooled human liver microsomes

CYP2C9 = molecular target: T4, CYP2C9 (Homo sapiens, UniProt P11712); assay: CYP450 inhibition in HLM, diclofenac probe; assay type: in vitro ADME; settings: read-out: IC50 CYP450 2C9
T4 construct: pooled human liver microsomes; tissue BioIVT; host or cells: pooled human liver microsomes
Method: as §1, §2

CYP3A4 = molecular target: T5, CYP3A4 (Homo sapiens, UniProt P08684); assay: CYP450 inhibition in HLM, atorvastatin, nifedipine and midazolam probes; assay type: in vitro ADME
T5 construct: pooled human liver microsomes; tissue BioIVT; host or cells: pooled human liver microsomes
Method: All incubations were carried out in triplicate.
The column temperature was maintained at 60 °C. […] The column temperature was maintained at 45 °C. […] The analytes were quantified in multiple reaction-monitoring mode.

CYP450 isozymes = assay: CYP450 inhibition in HLM, whole isozyme panel; assay type: in vitro ADME, human; settings: over the concentration range tested
Method: as §1, §2

[2] = midazolam probe, read-out: IC50 CYP450 3A4- MDZ
[3] = atorvastatin probe, read-out: IC50 CYP450 3A4-ATR
[4] = nifedipine probe, read-out: IC50 CYP450 3A4-NIF

T5 sequence (P08684 whole entry): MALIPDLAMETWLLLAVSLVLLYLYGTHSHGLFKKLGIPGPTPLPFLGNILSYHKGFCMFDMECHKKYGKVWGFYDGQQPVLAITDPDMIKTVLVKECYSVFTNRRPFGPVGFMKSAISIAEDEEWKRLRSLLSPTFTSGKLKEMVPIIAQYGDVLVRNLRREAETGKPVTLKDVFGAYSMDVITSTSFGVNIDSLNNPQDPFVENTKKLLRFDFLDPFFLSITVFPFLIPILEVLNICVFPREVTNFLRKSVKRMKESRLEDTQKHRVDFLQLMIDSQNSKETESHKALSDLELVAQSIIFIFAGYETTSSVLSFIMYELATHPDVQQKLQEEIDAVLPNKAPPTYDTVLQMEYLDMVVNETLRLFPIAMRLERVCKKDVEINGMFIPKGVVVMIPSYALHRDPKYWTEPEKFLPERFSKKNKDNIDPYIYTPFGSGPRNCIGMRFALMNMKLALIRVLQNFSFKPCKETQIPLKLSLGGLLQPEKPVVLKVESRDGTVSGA
T4 sequence (P11712 whole entry): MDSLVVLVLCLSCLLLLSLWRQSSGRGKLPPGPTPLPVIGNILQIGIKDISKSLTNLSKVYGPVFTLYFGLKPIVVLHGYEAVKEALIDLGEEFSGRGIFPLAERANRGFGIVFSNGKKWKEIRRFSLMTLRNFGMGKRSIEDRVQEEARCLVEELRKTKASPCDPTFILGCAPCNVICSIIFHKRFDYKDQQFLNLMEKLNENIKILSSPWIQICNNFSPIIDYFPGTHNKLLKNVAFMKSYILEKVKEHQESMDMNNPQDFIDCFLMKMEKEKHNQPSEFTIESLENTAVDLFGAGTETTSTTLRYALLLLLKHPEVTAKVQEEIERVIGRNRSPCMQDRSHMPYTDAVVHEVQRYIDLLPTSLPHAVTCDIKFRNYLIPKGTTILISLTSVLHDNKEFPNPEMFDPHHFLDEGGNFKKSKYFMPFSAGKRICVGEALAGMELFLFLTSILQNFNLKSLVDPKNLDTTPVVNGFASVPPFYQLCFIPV
T3 sequence (P10635 whole entry): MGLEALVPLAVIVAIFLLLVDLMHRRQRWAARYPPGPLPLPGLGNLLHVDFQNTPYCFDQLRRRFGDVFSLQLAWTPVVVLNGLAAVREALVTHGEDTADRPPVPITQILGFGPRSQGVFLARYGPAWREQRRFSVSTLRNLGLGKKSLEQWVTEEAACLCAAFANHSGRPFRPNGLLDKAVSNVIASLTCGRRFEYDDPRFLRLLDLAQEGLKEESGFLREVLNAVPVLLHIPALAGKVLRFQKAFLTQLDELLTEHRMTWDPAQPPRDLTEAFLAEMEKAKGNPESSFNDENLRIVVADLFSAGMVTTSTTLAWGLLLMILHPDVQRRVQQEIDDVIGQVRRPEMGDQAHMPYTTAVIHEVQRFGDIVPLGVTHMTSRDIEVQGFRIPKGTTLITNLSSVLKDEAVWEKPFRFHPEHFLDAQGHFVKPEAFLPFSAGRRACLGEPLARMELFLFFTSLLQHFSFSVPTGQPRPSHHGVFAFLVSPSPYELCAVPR

## Nc1cc(Cl)ccn1 [Compound 2-AP, 2-amino-4-chloropyridine, reference compound]
CYP2C8
  pIC50: < 4.00
[1]
  inhibition at 75 µM: 21%
  pIC50: < 4.12
CYP2D6
  pIC50: < 4.00
CYP2C9
  pIC50: < 4.00
CYP3A4; [2]
  pIC50: < 4.00
CYP450 isozymes
  inhibitory drug–drug interactions (CYP450 inhibition): no major inhibitory drug–drug interactions

## CC(C)(C)OC(=O)/N=C(\NC(=O)OC(C)(C)C)Nc1cc(C#N)ccn1 [SB023]
CYP2C8
  pIC50: < 4.00
[1]
  inhibition at 75 µM: 34.7%
  pIC50: 4.03
CYP2D6
  pIC50: < 4.00
CYP2C9
  pIC50: < 4.00
CYP3A4; [3]
  pIC50: < 4.00
CYP3A4; [2]
  pIC50: < 4.00
CYP3A4; [4]
  pIC50: < 4.00
CYP450 isozymes
  inhibitory drug–drug interactions (CYP450 inhibition): no major inhibitory drug–drug interactions

## CC(C)(C)OC(=O)/N=C(\NC(=O)OC(C)(C)C)Nc1cc(Cl)ccn1 [SB002]
CYP2C8
  pIC50: < 4.00
[1]
  inhibition at 75 µM: 100%
  pIC50: 4.88
CYP2D6
  pIC50: < 4.00
CYP2C9
  pIC50: < 4.00
CYP3A4; [3]
  pIC50: < 4.00
CYP3A4; [2]
  pIC50: < 4.00
CYP3A4; [4]
  pIC50: < 4.00
CYP450 isozymes
  inhibitory drug–drug interactions (CYP450 inhibition): no major inhibitory drug–drug interactions
